{
  "source": "paper PMC12153356",
  "about": "“An antisense oligomer conjugate with unpredicted bactericidal activity against Fusobacterium nucleatum” (mBio, 2025)",
  "key": {"[1]": {"system": "F. nucleatum subsp. nucleatum ATCC 23726 (FNN23)", "assay": "Determination of bactericidal effect by CFU spot assay", "format": "cell-based, Fusobacterium nucleatum subsp. nucleatum ATCC 23726", "settings": "10 µM, 1 × 10^5 CFU/mL in MHB, spotting on BHI agar plates, up to 96 h, three replicates", "protocol": "To investigate the bactericidal effects of PNAs an o.n. culture of FNN23 grown in ColB was diluted 1:50 in fresh ColB and grown to OD600 0.5. This culture was then diluted 1:2,500 to 1 × 10^5 CFU/mL in MHB, and 190 µL of the culture was dispensed into a transparent 96-well plate (Nunc, Thermo Fischer Scientific) together with 10 µL of respective 20× PNA stock or water and incubated at 37°C with 237 cpm shaking every 20 min. At the respective time points, 100 µL was taken out of the well, a 1:10 serial dilution series was prepared with 900 µL anoxic 1× PBS, and 5 µL of each dilution was spotted on BHI plates for CFU determination. Plates were incubated for 3 days at 37°C before taking out the plates of the anaerobic chamber for CFU counting."}, "[2]": {"system": "F. nucleatum subsp. nucleatum ATCC 23726 (FNN23)", "assay": "MIC determination and growth inhibition assay (broth microdilution, OD600 over time)", "format": "cell-based, Fusobacterium nucleatum subsp. nucleatum ATCC 23726", "settings": "MHB; for Growth inhibition of FNN23: 10 µM compound, 1 × 10^5 CFU/mL, growth inhibition = no visible growth (OD600 <0.01) after 120 h", "protocol": "To test CPP-PNA conjugates for growth inhibition, we diluted mid-exponential phase cultures of FNN23 to 1 × 10^5 colony forming units (CFUs) per milliliter in Mueller-Hinton Broth (MHB) and incubated the diluted bacteria with 10 µM of either (KFF)3K- or (RXR)4XB- conjugated PNAs targeting acpP, ftsZ or gyrA. Growth was monitored over time by OD600 measurements, with growth inhibition defined as no visible growth (OD600 <0.01) after 120 h. […] Based on these findings, we conclude that CPP-PNAs targeting fusobacterial mRNAs are not effective in antisense inhibition.\n(§1) The following fusobacterial strains were used in this study: Fusobacterium nucleatum subsp. nucleatum ATCC 23726 (FNN23) acquired from the American Type Culture Collection (ATCC), F. nucleatum subsp. nucleatum ATCC 25586 (FNN25), F. nucleatum subsp. vincentii ATCC 49256 (FNV), and F. nucleatum subsp. polymorphum ATCC 10953 (FNP) acquired from the German Collection of Microorganisms and Cell Culture (DSMZ), F. nucleatum subsp. animalis 7_1 (FNA) and F. periodonticum 2_1_31 (FPE) both received as a kind gift from E. Allen-Vercoe (University of Guelph, Canada). All strains were routinely grown at 37°C in 80:10:10 (N2:H2:CO2) anaerobic conditions on 2% agar supplemented BHI plates (BHI, 1% [wt:vol] dried yeast extract, 1% [vol:vol] 50% sterile-filtered glucose solution, 5 µg/mL of hemin; 1% [vol:vol] fetal bovine serum) from frozen 20% glycerol stocks kept at −80°C. For liquid growth, the strains were cultured in Columbia broth (ColB; BD Difco). Precultures were prepared 24 h before inoculating the working culture at a 1:50 dilution in fresh ColB until OD600 0.5 was reached. Cultures were then diluted in non-cation adjusted Mueller-Hinton Broth (MHB, BD Difco) to the desired CFU/mL number. P. gingivalis (DSM 20709) was purchased from DSMZ and grown at 37°C in anaerobic conditions as mentioned above on 2% agar supplemented BHI+ plates (BHI, 1% [wt:vol] dried yeast extract, 1% [vol:vol] 50% sterile filtered glucose solution, 5 µg/ml of hemin; 10% [vol:vol] fetal bovine serum; and 1 µg/mL vitamin K3) for 4 days. For liquid growth, P. gingivalis was cultured in BHI+ medium (BHI, BD Difco supplemented with 1% [vol:vol] 50% sterile-filtered glucose solution, 5 µg/mL of hemin; 1% [vol:vol] fetal bovine serum, and 1 µg/mL vitamin K3). Precultures were prepared 24 h before inoculating the working culture at a 1:20 dilution in BHI+ until OD600 of 0.5 was reached. All plates, media, buffers, and reagents were brought into the anaerobic chamber the day before usage to ensure full oxygen depletion.\nTo determine the MIC value, broth microdilutions were performed according to the standard protocol with some modifications ([119]). An overnight bacterial culture was diluted in a fresh ColB medium and grown to OD600 0.5 (mid-exponential phase). […] To determine the growth inhibition of P. gingivalis, an o.n. culture grown in BHI+ was diluted 1:1,500 in MHB to obtain 1 × 10^5 CFU/mL. E. coli K12, E. coli Nissle 1917, and S. enterica o.n. cultures grown in MHB were diluted 1:1,800 in fresh MHB to obtain 1 × 10^5 CFU/mL. In total, 190 µL of diluted bacterial cultures were pipetted into a transparent 96-well plate (Nunc, Thermo Fischer Scientific) together with 10 µL of respective 20× CPP or CPP-PNA stock or water as control. Bacterial growth was monitored by measuring OD600 every 20 min with constant shaking in a plate reader (Biotek) under the normal atmospheric environment or positioned in the anaerobic chamber with double orbital shaking every 20 min prior to each measurement with 237 cpm at 37°C for 120 h."}, "[3]": {"system": "F. nucleatum subsp. nucleatum ATCC 25586 (FNN25)", "assay": "Growth inhibition assay", "format": "cell-based, Fusobacterium nucleatum subsp. nucleatum ATCC 25586", "settings": "10 µM, MHB, 1 × 10^5 CFU/mL input, three replicates; listed as sequence variant 1", "from_the_text": "as §1, with “For liquid growth, P. gingivalis was cultured in BHI+ medium (BHI, BD Difco supplemented with 1% [vol:vol] 50% sterile-filtered glucose solution, 5 µg/mL of hemin; 1% [vol:vol] fetal bovine serum, and 1 µg/mL vitamin K3). Precultures were prepared 24 h before inoculating the working culture at a 1:20 dilution in BHI+ until OD600 of 0.5 was reached. All plates, media, buffers, and reagents were brought into the anaerobic chamber the day before usage to ensure full oxygen depletion.” left out\n(§2) To determine the MIC value, broth microdilutions were performed according to the standard protocol with some modifications ([119]). […] Bacterial growth was monitored by measuring OD600 every 20 min with constant shaking in a plate reader (Biotek) under the normal atmospheric environment or positioned in the anaerobic chamber with double orbital shaking every 20 min prior to each measurement with 237 cpm at 37°C for 120 h."}, "[4]": {"system": "F. nucleatum subsp. animalis 7_1 (FNA)", "assay": "Growth inhibition assay", "format": "cell-based, Fusobacterium nucleatum subsp. animalis 7_1", "settings": "10 µM, MHB, 1 × 10^5 CFU/mL input, three replicates; listed as sequence variant 1", "from_the_text": "as §1, with “For liquid growth, P. gingivalis was cultured in BHI+ medium (BHI, BD Difco supplemented with 1% [vol:vol] 50% sterile-filtered glucose solution, 5 µg/mL of hemin; 1% [vol:vol] fetal bovine serum, and 1 µg/mL vitamin K3). Precultures were prepared 24 h before inoculating the working culture at a 1:20 dilution in BHI+ until OD600 of 0.5 was reached. All plates, media, buffers, and reagents were brought into the anaerobic chamber the day before usage to ensure full oxygen depletion.” left out\nas §2"}, "[5]": {"system": "F. nucleatum subsp. polymorphum ATCC 10953 (FNP)", "assay": "Growth inhibition assay", "format": "cell-based, Fusobacterium nucleatum subsp. polymorphum ATCC 10953", "settings": "10 µM, MHB, 1 × 10^5 CFU/mL input, three replicates; listed as sequence variant 1", "from_the_text": "as §1, with “For liquid growth, P. gingivalis was cultured in BHI+ medium (BHI, BD Difco supplemented with 1% [vol:vol] 50% sterile-filtered glucose solution, 5 µg/mL of hemin; 1% [vol:vol] fetal bovine serum, and 1 µg/mL vitamin K3). Precultures were prepared 24 h before inoculating the working culture at a 1:20 dilution in BHI+ until OD600 of 0.5 was reached. All plates, media, buffers, and reagents were brought into the anaerobic chamber the day before usage to ensure full oxygen depletion.” left out\nas §2"}, "[6]": {"system": "F. periodonticum 2_1_31 (FPE)", "assay": "Growth inhibition assay", "format": "cell-based, Fusobacterium periodonticum 2_1_31", "settings": "10 µM, MHB, 1 × 10^5 CFU/mL input, three replicates; listed as sequence variant 1", "from_the_text": "as §1, with “For liquid growth, P. gingivalis was cultured in BHI+ medium (BHI, BD Difco supplemented with 1% [vol:vol] 50% sterile-filtered glucose solution, 5 µg/mL of hemin; 1% [vol:vol] fetal bovine serum, and 1 µg/mL vitamin K3). Precultures were prepared 24 h before inoculating the working culture at a 1:20 dilution in BHI+ until OD600 of 0.5 was reached. All plates, media, buffers, and reagents were brought into the anaerobic chamber the day before usage to ensure full oxygen depletion.” left out\nas §2"}, "HeLa cells": {"system": "HeLa cells", "settings": "cited from earlier work"}},
  "note": "Square brackets hold non-standard residues; d marks the D form. Peptide text beside a SMILES is read from it. Ahx = NCCCCCC(=O)O; βAla = NCCC(=O)O",
  "data": [
    {"compound": "Polymyxin B [reference compound]", "values": [
      {"measurement": "Bactericidal effect (viable cells, CFU) on FNN23", "setting": "[1]", "result": "fully diminished CFUs after 96 h"}
    ]},
    {"compound": "RXRRXRRXRRXRXB [FUS79 variant 1]", "values": [
      {"measurement": "Growth inhibition of FNN23", "setting": "[2]; listed as sequence variant 1", "result": "inhibited the growth"},
      {"measurement": "Growth inhibition of FNN25", "setting": "[3]", "result": "effective in strains susceptible to FUS79"},
      {"measurement": "Growth inhibition of FNA", "setting": "[4]", "result": "effective in strains susceptible to FUS79"},
      {"measurement": "Growth inhibition of FNP", "setting": "[5]", "result": "effective in strains susceptible to FUS79"},
      {"measurement": "Growth inhibition of FPE", "setting": "[6]", "result": "effective in strains susceptible to FUS79"}
    ]},
    {"compound": "RXRRXRRXRRXRXB [(RXR)4XB-trpB, (RXR)4XB conjugated to 11mer PNA … complementary to trpB TIR]", "values": [
      {"measurement": "Growth inhibition of FNN23", "setting": "[2]", "result": "did not result in growth impairment"}
    ]},
    {"compound": "RXRRXRRXRXB [(RXR)3XB-PNA79, PNA … with shortened CPP module RXRRXRRXRXB]", "values": [
      {"measurement": "Growth inhibition of FNN23", "setting": "[2]", "result": "only the original FUS79 as well as sequence variant 1 conjugated to full-length (RXR)4XB inhibited the growth"}
    ]},
    {"compound": "RXRRXRRXRRXRXB [(RXR)4XB-non-targeting-PMO, (RXR)4XB conjugated to non-targeting 11mer PMO …]", "values": [
      {"measurement": "Growth inhibition of FNN23", "setting": "[2]; listed as (RXR)4XB-conjugated non-targeting PMO control", "result": "did not inhibit the growth"}
    ]},
    {"compound": "CC[C@H](C)[C@H](NC(=O)[C@H](CCCNC(=N)N)NC(=O)[C@H](CCCNC(=N)N)NC(=O)[C@H](CC(C)C)NC(=O)[C@H](Cc1c[nH]c2ccccc12)NC(=O)[C@H](C)NC(=O)[C@H](CCCCN)NC(=O)[C@@H](NC(=O)[C@H](CCCNC(=N)N)NC(=O)[C@H](CCCNC(=N)N)NC(=O)[C@H](CC(C)C)NC(=O)[C@@H](N)Cc1c[nH]c2ccccc12)[C@@H](C)CC)C(=O)N[C@@H](CCCCN)C(=O)N[C@@H](C)C(=O)N[C@@H](CC(C)C)C(=O)N[C@@H](CC(N)=O)C(=O)N[C@@H](CCCNC(=N)N)C(=O)N[C@@H](CCC(N)=O)C(=O)N[C@@H](CC(C)C)C(=O)NCC(=O)N[C@H](C(=O)N[C@@H](C)C(=O)N[C@@H](C)C(=O)O)C(C)C", "note": "[Seq471]", "values": [
      {"measurement": "Cytotoxicity in HeLa cells", "setting": "HeLa cells", "result": "without notable cytotoxicity"}
    ]},
    {"compound": "KFFKFFKFFK [(KFF)3K-gyrA_11mer_2, (KFF)3K conjugated to 11mer PNA … targeting gyrA]", "values": [
      {"measurement": "Growth delay of FNN23", "setting": "[2]; 10 µM (KFF)3K-PNA, 1 × 10^5 CFU/mL (Fig. 2C)", "result": "~ 40 h"},
      {"measurement": "Growth retardation of FNN23 at higher concentrations", "setting": "[2]; concentrations higher than 10 µM, 1 x 10^5 CFU per ml (Fig. S1C)", "result": "did not lead to further growth retardation"}
    ]},
    {"compound": "KFFKFFKFFK (GACATAATTGT; all phosphorodiamidate morpholino (PMO); (KFF)3K peptide conjugated via azide-cyclooctyne click, attachment end not given here) [(KFF)3K-PMO79, (KFF)3K conjugated to 11mer PMO …]", "values": [
      {"measurement": "Growth inhibition of FNN23", "setting": "[2]", "result": "did not inhibit the growth"}
    ]},
    {"compound": "RXRRXRRXRRXRXB [(RXR)4XB-ftsZ, (RXR)4XB conjugated to 10mer PNA … targeting ftsZ]", "values": [
      {"measurement": "Bactericidal effect (viable cells, CFU) on FNN23", "setting": "[1]; listed as (RXR)4XB-PNA targeting ftsZ", "result": "could not observe a CFU reduction"}
    ]},
    {"compound": "GACATAATTGT [PNA79, FUS79 without the (RXR)4XB module, PNA …]", "values": [
      {"measurement": "Growth inhibition of FNN23", "setting": "[2]", "result": "only the original FUS79 as well as sequence variant 1 conjugated to full-length (RXR)4XB inhibited the growth"}
    ]},
    {"compound": "N=C(N)NCCC[C@H](NC(=O)CCCCCNC(=O)[C@H](CCCNC(=N)N)NC(=O)[C@H](CCCNC(=N)N)NC(=O)CCCCCNC(=O)[C@H](CCCNC(=N)N)NC(=O)[C@H](CCCNC(=N)N)NC(=O)CCCCCNC(=O)[C@H](CCCNC(=N)N)NC(=O)[C@H](CCCNC(=N)N)NC(=O)CCCCCNC(=O)[C@@H](N)CCCNC(=N)N)C(=O)NCCCCCC(=O)NCCC(=O)O", "note": "[(RXR)4XB, reference compound] (H-R[Ahx]RR[Ahx]RR[Ahx]RR[Ahx]R[Ahx][βAla]-OH; N-terminus and C-terminus assumed)", "values": [
      {"measurement": "Bactericidal effect (viable cells, CFU) on FNN23", "setting": "[1]", "result": "no bactericidal effect"}
    ]}
  ]
}
